# From patent US9205137B2, “Maturation of gastrointestinal tract” (ANARA AB, priority 2010, dated 2015)
# B1: papain (protein, UniProt P00784 134-345, looked up)
# Papain: IPEYVDWRQKGAVTPVKNQGSCGSCWAFSAVVTIEGIIKIRTGNLNEYSEQELLDCDRRSYGCNGGYPWSALQLVAQYGIHYRNTYPYEGVQRYCRSREKGPYAAKTDGVRQVQPYNEGALLYSIANQPVSVVLEAAGKDFQLYRGGIFVGPCGNKVDHAVAAVGYGPNYILIKNSWGTGWGENGYIRIKRGTGNSYGVCGLYTSSFYPVKN
# notes: enzyme from papaya fruit (papain)
# B2: trypsin (protein, UniProt P00760 24-246, looked up)
# Serine protease 1: IVGGYTCGANTVPYQVSLNSGYHFCGGSLINSQWVVSAAHCYKSGIQVRLGEDNINVVEGNEQFISASKSIVHPSYNSNTLNNDIMLIKLKSAASLNSRVASISLPTSCASAGTQCLISGWGNTKSSGTSYPDVLKCLKAPILSDSSCKSAYPGQITSNMFCAGYLEGGKDSCQGDSGGPVVCSGKLQGIVSWGSGCAQKNKPGVYTKVCNYVSWIKQTIASN
# notes: protease that breaks down proteins at the basic amino acids
# Assays:
# 14-d-old rat pups [1] = experiment: Morphometry of mature enterocytes along villi, Creon with drug pre-treatment, Example 2; format: in vivo; details: for Mature epithelium: drug 0.01 mg/g b.wt per day, then water (no Creon)
# Protocol: (§1) In both of the following experiments 14-d-old pups were weighed and divided into groups and further to subgroups depending on the aim of each experiment. Pups were fed intragastrically via a feeding tube (0.96 mm outer diameter, PE50, Becton Dickinson, Sparks, Md., USA), in a volume 0.01 mL/g b.wt. The dose(s) for each pup was repeated once daily in corresponding manner for three days (14, 15, 16-d-old).
# (§2) At 17 days of age, all the pups were separated from their dams and then anesthetized by a subcutaneous injection of a mixture of Azaperone® (Stresnil; Janssen Pharmaceutica, Beerse, Belgium), 30 μg/g body weight (b.wt), and Ketamine® (Ketalar; Pfizer, New York, N.Y., USA), 170 μg/g b.wt. Once sure of anesthesia, the abdomen and thorax were then opened, euthanized via heart puncture. The small intestine was, after it was dissected out, length measured and then divided into two equally long proximal and distal parts, both of which were flashed with cold saline followed by a measurement of each one's weight. A 2 cm piece was collected from the midsection of the distal part and fixed in bouin's solution for 24 hr at room temperature for morphological changes measurements, while the rest parts of it were immediately frozen on dry ice and stored for functional analysis.
# All the samples from the distal SI were embedded into paraffin, cut laterally into […] thick sections, deparaffinated, and stained with hematoxylin and eosin according to standard procedures. All the samples were then imaged by using an Olympus PROVIS microscope (objective ×10) utilizing an Olympus DP50 camera (Olympus, Tokyo, Japan). Morphomertic analysis by measuring the ratio of the length of the adult-like epithelium to whole villi length was done by using ImageJ 1.36 program (National Institute of Health, Bethesda, Md.). […]
# 14-d-old rat pups [2] = experiment: Disaccharidase activity in distal intestinal homogenates, Creon with drug pre-treatment, Example 2; format: in vivo; details: for Disaccharidase specific activity, Lactase / Disaccharidase specific activity, Maltase / Disaccharidase specific activity, Sucrase: drug alone, then water (no Creon), distal part
# Protocol: as §1, §2
# The distal part of the small intestine was homogenized in cold 0.9% NaCl (1:10 w/v). Then, the disaccharidase activities were measured by the Dahlqvist A method, by incubating the homogenates with the appropriate disaccharide for 1 h at 37° C., thereafter the liberated glucose was measured by using a glucose oxidase reagent (Sigma chemicals), as described in Dahlqvist, A, in 1984 (Assay of intestinal disaccharidases, Scand J Clin Lab Invest, 1984; 44: 169-172).
# The protein contents were determined by the method of Lowry et al (Lowry O H, Rosebrough N J, Farr A L & Randall R J Protein measurement with the Folin phenol reagent, J Biol Chem; 1951:193, 265-275.), modified for 96-well microplates as described in Pierzynowsk et al (Pierzynowsk S G, Westrom B R, Svendsen J & Karlsson B W. Development of exocrine pancreas function in chronically cannulated pigs during 1-13 weeks of postnatal life. J Pediatr Gastroenterol Nutr 1990; 10:206-212), and using serial dilutions of BSA (Sigma chemicals) as a standard.
# (§3) The 2nd exp. includes four litters; all pups (n=36) were randomly divided into two groups (Creon: 150 mg of capsule (lipase 10 000 USP, potease 37 500 USP, amylase 33 200 USP and water), the dose of Creon was 1.5 mg/g b.wt), then each group divided into subgroup pretreated one hour prior to enzyme feeding with anti-inflammatory drugs, Ibuprofen or Celecoxib (celecoxib; Pfizer, New York, N.Y., USA) the dose of drugs was 0.01 mg/g b.wt per day for both, diluted to give volume 0.01 mL/g b.wt. Thus six groups were obtained water/water, Ibupofen/water, Celecoxib/water, water/Creon, Ibuprofen/Creon and Celecoxib/Creon.
# [3] = cited from earlier work
# 14-d-old rat pups [4] = experiment: Small intestine length and weight, Creon with anti-inflammatory drug pre-treatment, Example 2; format: in vivo; details: for Small intestine Distal wt / Small intestine Length / Small intestine Proximal wt: drug 0.01 mg/g b.wt per day, then water (no Creon)
# Protocol: as §1, §2
# In order to compensate for individual variations in BW, the organ measurements are presented per g BW. All data are presented as mean values and standard deviations. Statistical comparisons between all groups were carried out using a one-way ANOVA analysis (SigmaStat 2.0; Jandel Scientific, San Rafael, Calif., USA) with all pairwise multiple-comparison procedures (Student Newman-Keuls method). Differences were considered to be significant when P<0.05.
# as §3
# suckling rats [5] = experiment: Papain vs microbial protease: macromolecule absorption (BSA, BIgG in plasma), Example 8; format: in vivo, Rattus norvegicus; details: in words (FIG. 14)
# Description: (§4) The litter size for each dam was limited to 12 or 13 pups, to reduce variability.
# (§5) Suckling pups were divided into 3 groups depending on the treatments; microbial protease as a positive control, water as negative control and enzyme from papaya fruit (papain) (in total; protease=7, papain=8, control=7). The enzymes are available in the market in form of powders and were resolved in distilled water prior to stomach feeding during 14-16 d of age. The administered dose for each enzyme was 10000 USP/animal. The volume of administered enzymes and water (for control groups) was 0.01 ml/g b.wt. Prior to the feeding procedure, the pups were weighed. […] Three hours later, the pups were anaesthetized and organs were dissected out for analyses.
# young rats = experiment: Growth of young rats treated with microbial amylase or lipase, Example 7; format: in vivo; details: 10 000 USP for amylase/rat, days 14-16, in words (FIG. 11)
# Protocol: This study was done to consider the effect of separated enzymes on body growth. The experiment is completing study done earlier to investigate effects of protease on body growth and was performed in similar mode (see experiment 3-5 above).
# Suckling pups were divided into 3 groups depending on the treatment; amylase, lipase and water (n=7 per group). The enzymes are available in the market in form of powders and were resolved in distilled water prior to stomach feeding during 14-16 d of age, ones a day. The administered dose for each single enzyme feeding was 4 000 USP for lipase/rat and 10 000 USP for amylase/rat. The control group received vehicle.
# suckling rats [6] = experiment: Set I: plasma concentration of marker molecules BSA and BIgG (macromolecule absorption), Example 3; format: in vivo, Rattus norvegicus; details: 3 hours after marker feeding, day 17, in words (FIG. 6)
# Description: The plasma level of marker molecules was quantified by using immunoassay rocket electrophoresis and SRI (single radial immunodiffusion) for plasma BSA and BIgG respectively.
# suckling rats [7] = experiment: Set I: intestinal morphology of distal SI, Example 3; format: in vivo, Rattus norvegicus; details: distal part of SI, day 17
# Protocol: All samples collected for histology were fixed with Bouin's solution for 24 hours and then stored in 70% ethanol, dehydrated, embedded into the paraffin and then cut into sections with 5 μm thickness. The tissue sections were transferred onto the slides, rehydrated and stained with H&E according to the standard technique. After mounting under cover slips samples were examined using light microscopy to estimate ratio between total length of the villus and length of the adult type enterocytes using ImageJ program.
# suckling rats [8] = experiment: Set I: body weight, GI and lymphoid organ weights, stomach pH after individual enzymes or mixture, Example 3; details: day 17; for Body weight / Cecum / Distal SI / Liver / Pancreas / Proximal SI / SI length / Spleen / Stomach / Thymus: 3 days treatment; for pH: stomach contents
# Protocol: All experiments were performed in young suckling rats by feeding them from 14 days of age via stomach tube for 3 continuous days (ones a day). One day after last treatment rats were euthanized and plasma and organs proceeded to study structural and functional changes of gastrointestinal system.
# The pups were kept with their dam until dissection day (day 17).
# In this set suckling pups were divided into five groups; control (water) amylase 10 000 USP/rat/day, lipase 4 000 USP/rat/day, protease 15 000 USP/rat/day, and mixture of these enzyme with corresponding activities per rat and day. This study was evaluating the effects of different pancreatic-like enzymes on the gut maturation and functioning and had 3 individual litters; n=12, n=10 and n=13, totally n=7 pups per each group. Each of the enzymes (Amylase, Protease and Lipase) (Sigma Aldrich) was available in the powder form and was resolved in distilled water prior to stomach feeding during days 14, 15 and 16. The volume of administered enzymes and distilled water (for control groups) was 0.01 ml/g BW. Each time, prior to the feeding procedure, the pups were weighed. […] Then 3 hours later, the pups were sedated with CO2 and anaesthetized by subcutaneous injection with a mixture of ketamine (Ketalar®, Pfizer, New York, USA, NaCl and azaperone (Stresnil®, Janssen Pharmaceutica, Beerse, Belgium), 0.01 ml/g BW. After opening the abdomen of the rats, 1 ml of blood was collected from heart by using syringes containing protease inhibitor and EDTA (50 μl) as anticoagulant and was transferred into ice-chilled tubes. After this, the pancreas was immediately dissected and rinsed with cold 0.9% NaCl, weighted and stored at −70 C. The SI was removed and its length was measured then divided into two halves, proximal and distal. Each segment was flushed out with cold 0.9% NaCl to clean the lumen and was then weighed separately. […] The stomach was removed and its content was collected into the tube (for measuring its pH) and frozen. Then cecum was dissected out, opened, rinse and weighed as well as liver and lymphoid organs spleen and thymus were dissected and weighted.
# The contents of the stomach were de-frozen and then resolved with 1 ml of cold 0.9% NaCl. After resolving, they were centrifuged and the pH was measured in the supernatant using pH-meter.
# All data are presented as mean±standard deviation (SD). Statistical comparisons between each group and control group were performed using the t-test. Results were considered as significant when P<0.05.
# suckling rats [9] = experiment: Set I: brush-border disaccharidase activity in proximal SI, Example 3; format: in vivo, Rattus norvegicus; details: proximal part of SI, in words (FIG. 5)
# Protocol: The proximal samples of the SI were de-frozen and weighted and then homogenized with 9 parts of 0.9% NaCl (9 w/v). The homogenates (50 μl diluted samples) were incubated with the appropriate disaccharide (50 μl of 0.056M sucrose, maltose and lactose) for 1 hour at 37° C. After this, the liberated glucose was determined by adding glucose oxidase reagent (Sigma Chemicals), and incubated for 30 minutes. Then samples were transferred into the 96-well plate in triplication and the absorbance was measured at 450 nm. To measure the protein contents of the homogenates, Lowry method, was used, where BSA (Bovine Serum Albumin) was used as a standard. The results are presented as specific activity units per mg of protein (u/mg).
# suckling rats [10] = experiment: Papain vs microbial protease: intestinal disaccharidase activity in proximal SI, Example 8; format: in vivo, Rattus norvegicus; details: proximal part of SI, in words (FIG. 13)
# Description: as §4, §5
# The activities of the brush-border enzymes lactase, maltase and sucrase were analyzed in the proximal part of the SI in groups treated with papain and protease.
# suckling rats [11] = experiment: Papain vs microbial protease: body and organ weight, Example 8; format: in vivo, Rattus norvegicus
# Description: as §4, §5
# [12] = drug one hour prior to Creon, in words
# [13] = 10000 USP/animal, days 14-16, day 17
molecule,measurement,setting,value
"Cc1ccc(-c2cc(C(F)(F)F)nn2-c2ccc(S(N)(=O)=O)cc2)cc1 [Celexosib, Celecoxib]",Mature epithelium,14-d-old rat pups [1],7.98^A %
same,"Disaccharidase specific activity, Lactase",14-d-old rat pups [2],100.91 U/mg
same,"Disaccharidase specific activity, Maltase",14-d-old rat pups [2],72.24 ^A U/mg
same,"Disaccharidase specific activity, Sucrase",14-d-old rat pups [2],1.28 ^A U/mg
same,half life,[3],12 h
same,Small intestine Distal wt,14-d-old rat pups [4],14.45 ^A mg/g bwt
same,Small intestine Length,14-d-old rat pups [4],1.64 cm/g bwt
same,Small intestine Proximal wt,14-d-old rat pups [4],16.32 ^A mg/g bwt
CC(C)Cc1ccc(C(C)C(=O)O)cc1 (centres unmarked) [Ibuprofen],Mature epithelium,14-d-old rat pups [1],8.78^A %
same,effect of drug pre-treatment on mature cells (morphometric analysis) under Creon,14-d-old rat pups [1]; [12],unaffected
same,"Disaccharidase specific activity, Lactase",14-d-old rat pups [2],114.17 U/mg
same,"Disaccharidase specific activity, Maltase",14-d-old rat pups [2],82.75 ^A U/mg
same,"Disaccharidase specific activity, Sucrase",14-d-old rat pups [2],1.12 ^A U/mg
same,effect of drug pre-treatment on disaccharidases activities under Creon,14-d-old rat pups [2]; [12],unaffected
same,Small intestine Distal wt,14-d-old rat pups [4],13.81 ^A mg/g bwt
same,Small intestine Length,14-d-old rat pups [4],1.60 cm/g bwt
same,Small intestine Proximal wt,14-d-old rat pups [4],16.24 ^A mg/g bwt
same,effect of drug pre-treatment on the effect of Creon on intestinal weight and length,14-d-old rat pups [4]; [12],could not be cancelled
bromelain,intestinal macromolecular absorptive capacity,suckling rats [5],remained in a higher level
α-Amylase from Aspergillus oryzae,growth of young rats in comparison to lipase and control group,young rats,clear effect of amylase to stimulate growth
same,uptake of marker molecule BIgG to plasma,suckling rats [6],remained in a higher level
same,uptake of marker molecule BSA to plasma,suckling rats [6],remained in a higher level
same,foetal-type epithelium with vacuolated enterocytes along the villi,suckling rats [7],77%
same,Body weight,suckling rats [8],37.2 ± 2.3 gr
same,Cecum,suckling rats [8],2.5 ± 0.3 mg/g BW
same,Distal SI,suckling rats [8],15.2 ± 2.3 mg/g BW
same,Liver,suckling rats [8],33.7 ± 1.3 mg/g BW
same,Pancreas,suckling rats [8],3.5 ± 0.4 mg/g BW
same,Proximal SI,suckling rats [8],16.6 ± 1.9 mg/g BW
same,SI length,suckling rats [8],1.5 ± 0.0 cm/g BW
same,Spleen,suckling rats [8],3.6 ± 0.7 mg/g BW
same,Stomach,suckling rats [8],6.8 ± 0.4 mg/g BW
same,Thymus,suckling rats [8],5.1 ± 0.2 mg/g BW
same,pH,suckling rats [8],4.0 ± 0.2
same,lactase activity,suckling rats [9],higher
same,maltase activity,suckling rats [9],stayed in a lower level
same,sucrase activity,suckling rats [9],stayed in a lower level
Lipase from B. cepacia,uptake of marker molecule BIgG to plasma,suckling rats [6],remained in a higher level
same,uptake of marker molecule BSA to plasma,suckling rats [6],remained in a higher level
same,foetal-type epithelium with vacuolated enterocytes along the villi,suckling rats [7],77%
same,Body weight,suckling rats [8],36.8 ± 2.2 gr
same,Cecum,suckling rats [8],2.4 ± 0.4 mg/g BW
same,Distal SI,suckling rats [8],15.2 ± 0.9 mg/g BW
same,Liver,suckling rats [8],34.5 ± 1.8 mg/g BW
same,Pancreas,suckling rats [8],3.7 ± 0.5 mg/g BW
same,Proximal SI,suckling rats [8],17.5 ± 1.7 mg/g BW
same,SI length,suckling rats [8],1.5 ± 0.1 cm/g BW
same,Spleen,suckling rats [8],3.5 ± 0.4 mg/g BW
same,Stomach,suckling rats [8],6.9 ± 0.8 mg/g BW
same,Thymus,suckling rats [8],4.9 ± 0.8 mg/g BW
same,pH,suckling rats [8],4.0 ± 0.3
same,lactase activity,suckling rats [9],higher
same,maltase activity,suckling rats [9],stayed in a lower level
same,sucrase activity,suckling rats [9],stayed in a lower level
B1,BSA concentration in rat plasma,"suckling rats [5]; day 17, 3 hours after feeding",significantly decreased
same,"uptake of macromolecules, BIgG absorption","suckling rats [5]; day 17, 3 hours after feeding",significantly lower
same,activity of maltase compared to control,suckling rats [10],significantly increased
same,activity of sucrase compared to control,suckling rats [10],significantly increased
same,Body weight,suckling rats [11]; [13],33.2 ± 5.00 gr
same,Cecum,suckling rats [11]; [13],3.42 ± 0.45 mg/g BW
same,Distal SI,suckling rats [11]; [13],17.8 ± 2.5 mg/g BW
same,Liver,suckling rats [11]; [13],33.33 ± 1.52 mg/g BW
same,Pncrease,suckling rats [11]; [13],4.07 ± 0.46 mg/g BW
same,Proxima SI,suckling rats [11]; [13],21.49 ± 1.57 mg/g BW
same,SI length,suckling rats [11]; [13],1.72 ± 0.17 cm/g BW
same,Spleen,suckling rats [11]; [13],3.46 ± 0.44 mg/g BW
same,Stomach,suckling rats [11]; [13],7.13 ± 0.45 mg/g BW
same,Thymus,suckling rats [11]; [13],4.65 ± 0.92 mg/g BW
same,effect on body growth,"suckling rats [11]; dose 10 000 USP, days 14 to 17, in words (FIG. 12)",No effect
B2,intestinal macromolecular absorptive capacity,suckling rats [5],remained in a higher level
same,weight of distal part of SI,suckling rats [11]; in words,increased weight
